Key:
clinical = details: human, in vivo
[1] = in vivo; cited from earlier work
[2] = Single-dose two-period crossover bioequivalence study, fasting: plasma pharmacokinetics of lisinopril and amlodipine (LC-MS/MS, NCA); details: for concentration at 0 h / concentration at 1 h / concentration at 2 h / concentration at 3 h / concentration at 4 h / concentration at 5 h / concentration at 6 h / concentration at 7 h / concentration at 8 h / concentration at 9 h / concentration at 10 h / concentration at 11 h / concentration at 12 h / concentration at 13 h / concentration at 24 h / concentration at 36 h / concentration at 48 h / concentration at 72 h / concentration at 96 h / concentration at 144 h / concentration at 168 h: human, plasma, po, Plasma concentration of amlodipine, reference (R) tablets; for concentration at 0 h: nominal time 0 h; for concentration at 1 h: nominal time 1 h; for concentration at 2 h: nominal time 2 h; for concentration at 3 h: nominal time 3 h; for concentration at 4 h: nominal time 4 h; for concentration at 5 h: nominal time 5 h; for concentration at 6 h: nominal time 6 h; for concentration at 7 h: nominal time 7 h; for concentration at 8 h: nominal time 8 h; for concentration at 9 h: nominal time 9 h; for concentration at 10 h: nominal time 10 h; for concentration at 11 h: nominal time 11 h; for concentration at 12 h: nominal time 12 h; for concentration at 13 h: nominal time 13 h; for concentration at 24 h: nominal time 24 h; for concentration at 36 h: nominal time 36 h; for concentration at 48 h: nominal time 48 h; for concentration at 72 h: nominal time 72 h; for concentration at 96 h: nominal time 96 h; for concentration at 144 h: nominal time 144 h; for concentration at 168 h: nominal time 168 h
[3] = amlodipine, intra-subject coefficient of variation

In the case of `CCOC(=O)C1=C(COCCN)NC(C)=C(C(=O)OC)C1c1ccccc1Cl` (centres unmarked) [amlodipine], the Tmax (clinical) is given as about 6 h, the Absorption [1] is given as “almost completely absorbed” and the “Intra-CV (%) of AUC0-t” value [2, 3] is given as 9.9%. For the same compound, the “Intra-CV (%) of AUC0-∞” value [2, 3] was 10.5%, the “Intra-CV (%) of Cmax” value [2, 3] was 9.7% and the concentration at 0 h ([2]; Max, maximum over subjects) was 0 ng/mL. It also gave a concentration at 1 h ([2]; Max, maximum over subjects) of 2.24 ng/mL, a concentration at 2 h ([2]; Max, maximum over subjects) of 2.57 ng/mL and a concentration at 3 h ([2]; Max, maximum over subjects) of 3.08 ng/mL. For the same compound, the concentration at 4 h ([2]; Max, maximum over subjects) was 2.45 ng/mL, the concentration at 5 h ([2]; Max, maximum over subjects) was 2.98 ng/mL and the concentration at 6 h ([2]; Max, maximum over subjects) was 4.18 ng/mL. It also gave a concentration at 7 h ([2]; Max, maximum over subjects) of 2.76 ng/mL, a concentration at 8 h ([2]; Max, maximum over subjects) of 3.48 ng/mL and a concentration at 9 h ([2]; Max, maximum over subjects) of 3.04 ng/mL. The concentration at 10 h ([2]; Max, maximum over subjects) was 2.86 ng/mL, the concentration at 11 h ([2]; Max, maximum over subjects) was 2.92 ng/mL and the concentration at 12 h ([2]; Max, maximum over subjects) was 2.98 ng/mL. For the same compound, the concentration at 13 h ([2]; Max, maximum over subjects) was 2.75 ng/mL, the concentration at 24 h ([2]; Max, maximum over subjects) was 2.45 ng/mL and the concentration at 36 h ([2]; Max, maximum over subjects) was 1.96 ng/mL. For the same compound, the concentration at 48 h ([2]; Max, maximum over subjects) was 1.69 ng/mL, the concentration at 72 h ([2]; Max, maximum over subjects) was 1.21 ng/mL and the concentration at 96 h ([2]; Max, maximum over subjects) was 1.11 ng/mL. The concentration at 144 h ([2]; Max, maximum over subjects) was 0.574 ng/mL, the concentration at 168 h ([2]; Max, maximum over subjects) was 0.455 ng/mL and the concentration at 0 h ([2]; Mean, mean of subjects) was 0 ng/mL. The concentration at 1 h ([2]; Mean, mean of subjects) was 0.686 ng/mL, the concentration at 2 h ([2]; Mean, mean of subjects) was 1.24 ng/mL and the concentration at 3 h ([2]; Mean, mean of subjects) was 1.51 ng/mL. The concentration at 4 h ([2]; Mean, mean of subjects) was 1.6 ng/mL, the concentration at 5 h ([2]; Mean, mean of subjects) was 2.03 ng/mL and the concentration at 6 h ([2]; Mean, mean of subjects) was 2.16 ng/mL. It also gave a concentration at 7 h ([2]; Mean, mean of subjects) of 2.04 ng/mL, a concentration at 8 h ([2]; Mean, mean of subjects) of 2.08 ng/mL and a concentration at 9 h ([2]; Mean, mean of subjects) of 1.96 ng/mL. The concentration at 10 h ([2]; Mean, mean of subjects) was 1.85 ng/mL, the concentration at 11 h ([2]; Mean, mean of subjects) was 1.77 ng/mL and the concentration at 12 h ([2]; Mean, mean of subjects) was 1.74 ng/mL. For the same compound, the concentration at 13 h ([2]; Mean, mean of subjects) was 1.65 ng/mL, the concentration at 24 h ([2]; Mean, mean of subjects) was 1.41 ng/mL and the concentration at 36 h ([2]; Mean, mean of subjects) was 1.13 ng/mL. The concentration at 48 h ([2]; Mean, mean of subjects) was 0.928 ng/mL, the concentration at 72 h ([2]; Mean, mean of subjects) was 0.64 ng/mL and the concentration at 96 h ([2]; Mean, mean of subjects) was 0.446 ng/mL. For the same compound, the concentration at 144 h ([2]; Mean, mean of subjects) was 0.2 ng/mL, the concentration at 168 h ([2]; Mean, mean of subjects) was 0.137 ng/mL and the concentration at 0 h ([2]; Min, minimum over subjects) was 0 ng/mL. It also gave a concentration at 1 h ([2]; Min, minimum over subjects) of 0.26 ng/mL, a concentration at 2 h ([2]; Min, minimum over subjects) of 0.452 ng/mL and a concentration at 3 h ([2]; Min, minimum over subjects) of 0.598 ng/mL. For the same compound, the concentration at 4 h ([2]; Min, minimum over subjects) was 0.834 ng/mL, the concentration at 5 h ([2]; Min, minimum over subjects) was 1.26 ng/mL and the concentration at 6 h ([2]; Min, minimum over subjects) was 1.14 ng/mL. For the same compound, the concentration at 7 h ([2]; Min, minimum over subjects) was 1.03 ng/mL, the concentration at 8 h ([2]; Min, minimum over subjects) was 0.988 ng/mL and the concentration at 9 h ([2]; Min, minimum over subjects) was 0.918 ng/mL. The concentration at 10 h ([2]; Min, minimum over subjects) was 0.806 ng/mL, the concentration at 11 h ([2]; Min, minimum over subjects) was 0.82 ng/mL and the concentration at 12 h ([2]; Min, minimum over subjects) was 0.829 ng/mL. The concentration at 13 h ([2]; Min, minimum over subjects) was 0.812 ng/mL, the concentration at 24 h ([2]; Min, minimum over subjects) was 0.603 ng/mL and the concentration at 36 h ([2]; Min, minimum over subjects) was 0.482 ng/mL. The concentration at 48 h ([2]; Min, minimum over subjects) was 0.391 ng/mL, the concentration at 72 h ([2]; Min, minimum over subjects) was 0.226 ng/mL and the concentration at 96 h ([2]; Min, minimum over subjects) was 0.123 ng/mL. For the same compound, the concentration at 144 h ([2]; Min, minimum over subjects) was 0 ng/mL and the concentration at 168 h ([2]; Min, minimum over subjects) was 0 ng/mL.
